Assay [1] has as its system CTSL. Format: cell-based, human. The conditions noted are these: ARPE-19/HPV-16 cells, 10 μM drug, 24 hours.
Procedure: The retinal pigment epithelia cell line, ARPE-19/HPV-16, was chosen to establish a database of drug profiles because of its non-cancerous, human origin, with a normal karyotype.
Cells were aliquoted on 96-well plates (˜2×10^5 cells/well) and incubated for 24 hours prior to providing fresh media with a drug, or the drug vehicle (water, dimethyl sulfoxide, ethanol, methanol, or phosphate-buffered saline solution). Drugs were diluted 1000-fold in buffered Advanced D-MEM/F-12 culture medium (Invitrogen, Carlsbad, CA) containing nonessential amino acids and 110 mg/L sodium pyruvate.
Cells were harvested 24 hours after treatment and RNA was extracted using the RNeasy 96 protocol (Qiagen, Valencia, CA). Gene expression for 22,238 probe sets of 12,490 genes was generated with U133A2.0 microarrays following the manufacturer's instructions (Affymetrix, Santa Clara, CA). Drugs were profiled in duplicate or triplicate, with multiple vehicle controls on each plate. A total of 708 microarrays were analyzed including 74 for 18 antipsychotics, 499 for 448 other compounds, and 135 for vehicle controls.
The raw scan data were first converted to average difference values using MAS 5.0 (Affymetrix). The average difference values of both treatment and control data were set to a minimum threshold of 50 if below 50. For each treatment instance, all probe sets were then ranked based on their amplitude, or level of expression relative to the vehicle control (or average of controls when more than one was used). Amplitude was defined as the ratio of expression (t−v)/[(t+v)/2] where t corresponds to treatment instance and v to vehicle instance.
Each drug group profile was created using a novel Weighted Influence Model, Rank of Ranks (WIMRR) method which underscores the rank of each probe set across the entire gene expression profile rather than the specific change in expression level. WIMRR takes the average rank of each probe set across all of the members of the group and then re-ranks the probe sets from smallest average rank to largest average rank. A gene-set enrichment metric based on the Kolmogorov-Smirnov (KS) statistic.
Applicant analyzed expression profile of CTSL across all 466 drugs tested. In order to find positive hits and selected only those results that caused decrease of CTSL expression by at least 33% (1.5-fold down).
For assay [2] the following is noted: 230 ventilated patients with ALI; cited from earlier work.
For assay [3] the following is noted: 492 patients; cited from earlier work.
The conditions of assay [4]: 404 ALI patients and 177 controls; cited from earlier work.
The subject of assay [5] is FYCO1. The class given is cell-based, human. The conditions noted are these: ARPE-19 cells.
The conditions of assay [6]: within 14 days of treatment; cited from earlier work.
The conditions of assay [7]: sepsis-induced acute lung injury in rats; cited from earlier work.
The conditions of assay [8]: rats; cited from earlier work.
The conditions of assay [9]: people with nonalcoholic fatty liver disease; cited from earlier work.
For assay [10] the following is noted: people with heart failure; cited from earlier work.
The conditions of assay [11]: people with diabetes; cited from earlier work.
The conditions of assay [12]: people with dyslipidemia; cited from earlier work.

The structures appear in SMILES notation. Counter-ions that a name gives are not always drawn.

With `CN1[C@@H]2CC[C@H]1C[C@@H](OC(=O)C(CO)c1ccccc1)C2` (some centres unmarked) [Atropine Sulfate], in assay [1], the “log2(treated) CTSL” value came to 9.63 log2 and the “log2 difference (CTSL, treated vs control)” value (“log2 difference” for short) is given as −0.70 log2.

Regarding `CC(C)(C)C(=O)Oc1ccc(S(=O)(=O)Nc2ccccc2C(=O)NCC(=O)O)cc1` [sivelestat], in [2], the 30-day survival rate entry is reported as “no significant effect”, the ICU stay result is recorded as “shortened” and the “duration of mechanical ventilation” value is reported as “reduced”. Besides, in [3], the 28-day all-cause mortality entry is on record as “no effect” and the ventilator free days entry is given as “no effect”. Also, in assay [4], the “number of ventilator free days” value is on record as “significantly improved”.

As for `COc1ccc2c(c1)c(CC(=O)O)c(C)n2C(=O)c1ccc(Cl)cc1` [indomethacin], in assay [5], the “FYCO1 expression, Difference (treated vs control)” value (from here on “FYCO1 expression, Difference”) is on record as −1.539 and the “FYCO1 expression, Treated” value stood at 4.949.

With `CC(C)c1c(C(=O)Nc2ccccc2)c(-c2ccccc2)c(-c2ccc(F)cc2)n1CC[C@@H](O)C[C@@H](O)CC(=O)O` [Atorvastatin], in assay [6], the “decrease of the level of CoQ10” value was 49%.

`CCC1(c2ccccc2)C(=O)NCNC1=O` [primidone]: in [5], the “FYCO1 expression, Difference” value is −1.4959 and the “FYCO1 expression, Treated” value came out at 6.4453.

`COC1=C(OC)C(=O)C(C/C=C(\C)CC/C=C(\C)CC/C=C(\C)CC/C=C(\C)CC/C=C(\C)CC/C=C(\C)CC/C=C(\C)CC/C=C(\C)CC/C=C(\C)CCC=C(C)C)=C(C)C1=O` [CoQ10, Coenzyme Q10]: in assay [7], the pulmonary edema result is listed as “improved” and the survival result is “improved”. Further, the “fibrosis in the lung and liver” value in [8] is on record as “beneficial in attenuating fibrosis”. For the same molecule, the “liver and systemic markers of inflammation” value in [9] is on record as “improves”. Besides, in [10], the “mortality and cardiac markers” value is recorded as “improves”. Moreover, in [11], the “total cholesterol and low-density lipoprotein levels” value is “improve”. Also, in assay [12], the endothelial dysfunction result is “improve”.

With `Cc1ccc(/C(=C\CN2CCCC2)c2ccccn2)cc1` [Triprolidine Hydrochloride], in assay [1], the “log2(treated) CTSL” value came out at 9.54 log2 and the “log2 difference” value is reported as −0.79 log2. Moreover, in assay [5], the “FYCO1 expression, Difference” value is given as −1.4935 and the “FYCO1 expression, Treated” value was found to be 6.4963.

For `CN(C)CCC(c1ccc(Br)cc1)c1ccccn1` (centres unmarked) [Brompheniramine Maleate], in assay [1], the “log2(treated) CTSL” value is 9.57 log2 and the “log2 difference” value is on record as −0.75 log2.

Take `O=C1NC(=O)C(c2ccccc2)(c2ccccc2)N1` [Phenytoin]: in assay [1], the “log2(treated) CTSL” value came out at 9.56 log2 and the “log2 difference” value is listed as −0.70 log2.

As to `NCC(CC(=O)O)c1ccc(Cl)cc1` (centres unmarked) [Baclofen], in [1], the “log2(treated) CTSL” value was 9.58 log2 and the “log2 difference” value was −0.82 log2. Moreover, in assay [5], the “FYCO1 expression, Difference” value was −1.2190 and the “FYCO1 expression, Treated” value is 6.7222.

Values taken from patent publication US20230346717A1, “IDENTIFICATION AND USE OF COMPOUNDS IN THE TREATMENT OR PREVENTION OF SEVERE ACUTE RESPIRATORY SYNDROME CORONAVIRUS 2” (priority 2020, published 2023).
